Results taken from ChEMBL document CHEMBL2406984, “Design and synthesis of hydroxyethylamine (HEA) BACE-1 inhibitors: prime side chromane-containing inhibitors” (Bioorg Med Chem Lett, 2013).

What was measured:
Cathepsin D = Cathepsin D (Homo sapiens, UniProt P07339); assay: Inhibition of cathepsin-D (unknown origin) using C-terminal biotinylated peptide substrate treated 30 mins before addition of peptide substrate measured after 110 mins by fluorescence polarization assay
Beta-secretase 1 = Beta-secretase 1 (Homo sapiens, UniProt P56817); assay: Inhibition of recombinant BACE-1 (unknown origin) expressed in Escherichia coli using biotinylated peptide substrate treated 20 mins before substrate addition measured after 3 hrs by fluorescence polarization assay
[1] = Apparent permeability of the compound from apical to basolateral side of MDCK2 cells at 5 uM after 120 mins by LC/MS/MS analysis; format: ADME, cell-based, Canis lupus familiaris, MDCK-II; details: dog, MDCK
[2] = Dissociation constant, pKa of the compound; format: physicochemical
[3] = Lipophilicity, log P of the compound; format: physicochemical; details: octanol/water

Sequence of Cathepsin D (P07339 65-162 limits assumed): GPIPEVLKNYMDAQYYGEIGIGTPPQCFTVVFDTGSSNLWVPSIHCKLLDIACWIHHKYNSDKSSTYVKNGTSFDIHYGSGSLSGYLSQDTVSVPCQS
Sequence of Cathepsin D (P07339 169-412 limits assumed): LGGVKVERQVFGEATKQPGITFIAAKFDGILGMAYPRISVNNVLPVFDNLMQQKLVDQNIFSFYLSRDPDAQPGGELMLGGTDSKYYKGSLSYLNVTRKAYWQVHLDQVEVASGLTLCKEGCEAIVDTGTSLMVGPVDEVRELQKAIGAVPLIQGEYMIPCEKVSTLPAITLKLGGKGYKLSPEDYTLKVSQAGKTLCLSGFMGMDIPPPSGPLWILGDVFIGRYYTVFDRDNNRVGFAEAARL
Sequence of Beta-secretase 1 (P56817 whole entry): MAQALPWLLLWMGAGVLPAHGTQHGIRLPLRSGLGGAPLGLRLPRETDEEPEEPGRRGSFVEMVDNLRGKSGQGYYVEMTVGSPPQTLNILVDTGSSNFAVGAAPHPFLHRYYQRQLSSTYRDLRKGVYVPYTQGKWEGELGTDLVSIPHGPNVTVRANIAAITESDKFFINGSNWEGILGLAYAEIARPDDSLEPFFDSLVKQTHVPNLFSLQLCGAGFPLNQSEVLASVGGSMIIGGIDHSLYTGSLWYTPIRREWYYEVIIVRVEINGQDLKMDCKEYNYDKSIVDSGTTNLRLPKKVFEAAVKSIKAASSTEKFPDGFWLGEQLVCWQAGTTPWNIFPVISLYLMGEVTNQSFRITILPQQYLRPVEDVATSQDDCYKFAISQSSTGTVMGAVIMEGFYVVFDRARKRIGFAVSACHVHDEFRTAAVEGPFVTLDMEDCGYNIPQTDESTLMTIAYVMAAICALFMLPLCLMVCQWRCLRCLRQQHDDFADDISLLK

Row | Compound | IC50 (Cathepsin D) [nM] | IC50 (Beta-secretase 1) [nM] | Papp A→B at 2 h, 5 µM [1] [×10⁻⁶ cm/s] | pKa [2] | logP [3]
1 | CC(=O)N[C@@H](Cc1cc(F)cc(F)c1)[C@H](O)CN[C@H]1CCN(C)c2ccc(CC(C)(C)C)cc21 | 68 | 643 |  |  | 
2 | CC(=O)N[C@@H](Cc1cc(F)cc(F)c1)[C@H](O)CN[C@H]1COCc2ccc(CC(C)(C)C)cc21 |  | 19700 |  |  | 
3 | CC(=O)N[C@@H](Cc1cc(F)cc(F)c1)[C@H](O)CN[C@H]1CCOc2ccc(CC(C)(C)C(F)F)cc21 | 478 | 1300 |  |  | 
4 | CC(=O)N[C@@H](Cc1cc(F)cc(F)c1)[C@H](O)CN[C@H]1CCOc2ccc(OC(C)C)cc21 | 429 | 414 | 11.2 |  | 
5 | CC(=O)N[C@@H](Cc1cc(F)cc(F)c1)[C@H](O)CN[C@H]1CC2(COC2)Oc2ccc(CC(C)(C)C)cc21 | 22500 | 27100 |  |  | 
6 | CC(=O)N[C@@H](Cc1cc(F)cc(F)c1)[C@H](O)CN[C@H]1CC(C)(C)Oc2ccc(OC(C)(C)C)cc21 | 374 | 690 | 1.1 |  | 
7 | CC(=O)N[C@@H](Cc1cc(F)cc(F)c1)[C@H](O)CN[C@H]1CCCc2ccc(Cc3ccccc3)cc21 | 251 | 4700 |  |  | 
8 | CCc1ccc2c(c1)[C@@H](NC[C@@H](O)[C@H](Cc1cc(F)cc(F)c1)NC(C)=O)CCC2 | 126 | 538 |  |  | 
9 | CCCCc1ccc2c(c1)[C@@H](NC[C@@H](O)[C@H](Cc1cc(F)cc(F)c1)NC(C)=O)CCC2 | 77 | 574 |  |  | 
10 | CC(=O)N[C@@H](Cc1cc(F)cc(F)c1)[C@H](O)CN[C@H]1CCCc2ccc(C(C)(C)C)cc21 | 74 | 378 |  |  | 
11 | CC(=O)N[C@@H](Cc1cc(F)cc(F)c1)[C@H](O)CN[C@H]1CCOc2ccc(OC3CCCO3)cc21 (mixture of isomers) | 286 | 1320 | 11 |  | 
12 | CC(=O)N[C@@H](Cc1cc(F)cc(F)c1)[C@H](O)CN[C@H]1CCOc2ccc(OC3CCOC3)cc21 (mixture of isomers) | 255 | 858 | 7.1 |  | 

Molecules with a lower IC50 (Beta-secretase 1), results first:

Row | IC50 (Cathepsin D) [nM] | IC50 (Beta-secretase 1) [nM] | Papp A→B at 2 h, 5 µM [1] [×10⁻⁶ cm/s] | pKa [2] | logP [3] | Compound
13 | 145 | 221 |  |  |  | CC(=O)N[C@@H](Cc1cc(F)cc(F)c1)[C@H](O)CN[C@H]1CCOc2ccc(OC3CCCC3)cc21
14 | 144 | 186 | 14.6 |  |  | CC(=O)N[C@@H](Cc1cc(F)cc(F)c1)[C@H](O)CN[C@H]1CCOc2ccc(CC(C)(F)F)cc21
15 | 80 | 148 | 8.3 |  |  | CC(=O)N[C@@H](Cc1cc(F)cc(F)c1)[C@H](O)CN[C@H]1CCOc2ccc(CC(C)(C)F)cc21
16 | 940 | 127 |  |  |  | CC(=O)N[C@@H](Cc1cc(F)cc(F)c1)[C@H](O)CN[C@H]1CS(=O)(=O)Cc2ccc(C(C)C)cc21
17 | 2840 | 116 | 0.3 | 5.8 | 3.2 | CCc1ccc2c(c1)[C@@H](NC[C@@H](O)[C@H](Cc1cc(F)cc(F)c1)NC(C)=O)CS(=O)(=O)C2
18 |  | 93 |  |  |  | CC(=O)N[C@@H](Cc1cc(F)cc(F)c1)[C@H](O)CN[C@H]1CCCc2ccc(CC(C)C)cc21
19 | 59 | 89 | 1.2 |  |  | CC(=O)N[C@@H](Cc1cc(F)cc(F)c1)[C@H](O)CN[C@H]1CC(C)(C)Oc2ccc(OC(F)(F)F)cc21
20 | 70 | 60 | 6.4 |  |  | CC(=O)N[C@@H](Cc1cc(F)cc(F)c1)[C@H](O)CN[C@H]1CCOc2ccc(CC(C)(C)C#N)cc21
21 | 12 | 46 | 3 |  |  | CC(=O)N[C@@H](Cc1cc(F)cc(F)c1)[C@H](O)CN[C@H]1CCOc2ccc(CC(C)(C)C)cc21
22 | 8 | 45 | 0.3 | 8.9 | 4.9 | CC(=O)N[C@@H](Cc1cc(F)cc(F)c1)[C@H](O)CN[C@H]1CCCc2ccc(CC(C)(C)C)cc21
23 | 362 | 42 |  |  |  | CC(=O)N[C@@H](Cc1cc(F)cc(F)c1)[C@H](O)CN[C@H]1CS(=O)(=O)Cc2ccc(CC(C)(C)C)cc21
24 | 6 | 22 |  |  |  | CC(=O)N[C@@H](Cc1cc(F)cc(F)c1)[C@H](O)CN[C@H]1CC2(CC2)Oc2ccc(CC(C)(C)C)cc21 (mixture of isomers)
25 | 2 | 15 |  |  |  | CCC[C@]1(C)C[C@H](NC[C@@H](O)[C@H](Cc2cc(F)cc(F)c2)NC(C)=O)c2cc(CC(C)(C)C)ccc2O1
26 | 16 | 9 | 1.7 |  |  | CC(=O)N[C@@H](Cc1cc(F)cc(F)c1)[C@H](O)CN[C@H]1CC(C)(C)Oc2ccc(CC(C)(F)F)cc21
27 | 5 | 9 |  |  |  | COC[C@@]1(C)C[C@H](NC[C@@H](O)[C@H](Cc2cc(F)cc(F)c2)NC(C)=O)c2cc(CC(C)(C)C)ccc2O1 (mixture of isomers)
28 | 18 | 8 | 0.3 |  |  | CC(=O)N[C@@H](Cc1cc(F)cc(F)c1)[C@H](O)CN[C@H]1CC(C)(C)Oc2ccc(CC(C)(C)C)cc21
29 | 1 | 6 |  |  |  | CCC[C@@]1(C)C[C@H](NC[C@@H](O)[C@H](Cc2cc(F)cc(F)c2)NC(C)=O)c2cc(CC(C)(C)C)ccc2O1
30 | 8 | 6 | 2.5 |  |  | CC(=O)N[C@@H](Cc1cc(F)cc(F)c1)[C@H](O)CN[C@H]1CC(C)(C)Oc2ccc(CC(C)(C)C#N)cc21
